# Assay results as given in US20260250318A1, “COMPOSITIONS AND METHODS FOR CROSSING THE BLOOD BRAIN BARRIER” (VOYAGER THERAPEUTICS, INC., priority 2022, published 2026).
# Legend:
# Details in all cases: synthetic library passage 3, intravenous, relative to wild-type AAV9
# [1] = system: brain, spinal cord, and DRG of the NHPs; assay: NGS fold enrichment of synthetic library (passage 3) in NHPs, first cross-species screen; format: in vivo, cynomolgus macaques (Macaca fascicularis)
# Procedure, shortened: (§1)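 Synthetic capsid library (passage 3) was given intravenously […] to NHPs aged 2-4 years and to BALB/c and C57Bl/6 mice (n=3 each, 6-8 weeks). After about 28 days in vivo, tissue RNA was RT-PCR amplified and NGS-sequenced; values are fold enrichment per variant relative to wild-type AAV9.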
# brain [2] = assay: NGS fold enrichment of synthetic library (passage 3) in BALB/c mice, first cross-species screen; format: in vivo
# Procedure, shortened: as §1
# brain [3] = assay: NGS fold enrichment of synthetic library (passage 3) in C57Bl/6 mice, first cross-species screen; format: in vivo
# Procedure, shortened: as §1
# [4] = RNA from spinal cord of NHPs, NGS
# [5] = RNA from brain of BALB/c mice, NGS
# [6] = RNA from brain of C57Bl/6 mice, NGS
Sequence,"Fold enrichment over AAV9 in the brain of NHPs ([1]; RNA NGS, brain of NHPs) [fold]","Fold enrichment over AAV9 in the spinal cord of NHPs ([1]; RNA NGS, spinal cord of NHPs) [fold]","Fold enrichment over AAV9 in the brain of Mice (BALB/c) (brain [2]; RNA NGS, brain of BALB/c mice) [fold]","Fold enrichment over AAV9 in the brain of Mice (C57Bl/6) (brain [3]; RNA NGS, brain of C57Bl/6 mice) [fold]","Fold enrichment over AAV9 in the brain of NHPs ([1]; RNA from brain of NHPs, NGS) [fold]","Fold enrichment over AAV9 in the spinal cord of NHPs [1, 4] [fold]",Fold enrichment over AAV9 in the brain of Mice (BALB/c) (brain [2]; [5]) [fold],Fold enrichment over AAV9 in the brain of Mice (C57Bl/6) (brain [3]; [6]) [fold]
GSGQNQQTHGGLRD,1.519,6.487,1.298,1.913,,,,
GSGQNQQTHPSPCT,1.510,1.003,0.546,1.120,,,,
GSGQNQQTKVGHSA,1.079,1.256,1.019,0.669,,,,
GSGQNQQTLPSLSL,1.084,1.758,0.175,0.527,,,,
GSGQNQQTLRGSLE,,,,,1.179,1.812,0.354,0.853
GSGQNQQTLSKPWT,1.743,0.253,0.733,0.845,,,,
GSGQNQQTLTASKE,,,,,1.333,1.152,1.172,0.981
GSGQNQQTLYSSNT,1.642,1.044,0.368,0.664,,,,
GSGQNQQTMANGQR,,,,,1.394,0.216,1.230,1.169
GSGQNQQTMDHNRT,2.130,4.944,0.440,0.642,,,,
GSGQNQQTMIANIR,1.076,0.000,0.458,0.379,,,,
GSGQNQQTMLGKPC,,,,,1.125,0.047,0.992,1.090
GSGQNQQTMPQHKI,1.097,2.394,0.197,0.479,,,,
GSGQNQQTNLGHTT,,,,,1.383,1.523,1.281,1.343
GSGQNQQTNRGNPM,1.860,3.402,1.098,1.349,,,,
GSGQNQQTPGAHKT,1.105,3.827,0.277,0.957,,,,
GSGQNQQTPLRPPT,1.624,0.352,0.472,0.874,,,,
GSGQNQQTRLTDLT,2.046,8.470,0.776,0.910,,,,
GSGQNQQTRLVDLT,2.342,9.348,0.490,1.268,,,,
GSGQNQQTRQEGST,,,,,1.339,0.000,0.718,0.645

Sequence,"Fold enrichment over AAV9 in the brain of NHPs ([1]; RNA NGS, brain of NHPs) [fold]","Fold enrichment over AAV9 in the spinal cord of NHPs ([1]; RNA NGS, spinal cord of NHPs) [fold]","Fold enrichment over AAV9 in the brain of Mice (BALB/c) (brain [2]; RNA NGS, brain of BALB/c mice) [fold]","Fold enrichment over AAV9 in the brain of Mice (C57Bl/6) (brain [3]; RNA NGS, brain of C57Bl/6 mice) [fold]","Fold enrichment over AAV9 in the brain of NHPs ([1]; RNA from brain of NHPs, NGS) [fold]","Fold enrichment over AAV9 in the spinal cord of NHPs [1, 4] [fold]",Fold enrichment over AAV9 in the brain of Mice (BALB/c) (brain [2]; [5]) [fold],Fold enrichment over AAV9 in the brain of Mice (C57Bl/6) (brain [3]; [6]) [fold]
GSGQNQQTSGTTNC,1.854,8.161,0.806,1.040,,,,
GSGQNQQTSGVLTL,1.553,0.000,0.782,1.104,,,,
GSGQNQQTSHFPSA,,,,,1.185,0.325,0.907,0.969
GSGQNQQTSLQDQT,2.505,0.500,0.968,0.315,,,,
GSGQNQQTSLSNTA,1.959,1.186,1.182,1.567,,,,
GSGQNQQTSMSNAT,1.501,6.766,0.745,1.605,,,,
GSGQNQQTSPHNHT,2.761,3.132,0.845,1.524,,,,
GSGQNQQTSPRLQT,1.100,0.795,1.091,1.156,,,,
GSGQNQQTSQPLPG,,,,,1.141,0.080,0.530,0.748
GSGQNQQTSQSPPT,,,,,1.194,1.208,0.478,0.851
GSGQNQQTSTGVHS,1.660,8.271,1.075,1.039,,,,
GSGQNQQTSTTPLP,1.052,2.823,0.741,0.828,,,,
GSGQNQQTSVGFRT,1.077,3.737,0.534,0.648,,,,
GSGQNQQTSVSQNV,,,,,1.281,0.750,0.715,0.788
GSGQNQQTSVSQQT,,,,,1.342,1.614,0.913,1.030
GSGQNQQTSVYMNT,1.498,0.613,0.983,0.640,,,,
GSGQNQQTTAATRM,,,,,1.163,3.925,1.005,0.947
GSGQNQQTTASSHT,1.618,7.404,0.678,0.745,,,,
GSGQNQQTTSSNMT,1.099,0.569,0.698,0.638,,,,
GSGQNQQTVGGKNL,,,,,1.203,0.128,1.051,0.777
